Source: PubChem BioAssay AID1259407 (Chemical Carcinogenesis Research Information System (CCRIS), 2018)
Calls of active or inactive are those of the source. The rule behind the calls is not given here.

Tested on: CCRIS mutagenicity, Ames/micronucleus/aberration tests
Experiment: CCRIS mutagenicity studies

SMILES: C[C@@H]1Cc2c(Cl)cc(C(=O)NC(Cc3ccccc3)C(=O)O)c(O)c2C(=O)O1 (some centres not stated)
- mutagenic call (Test System: AMES SALMONELLA TYPHIMURIUM, Strain/Indicator: TA102, Metabolic Activation: RAT, LIVER, S-9, AROCLOR 1254, Method: STANDARD PLATE): inactive; negative
- mutagenic call (Test System: AMES SALMONELLA TYPHIMURIUM, Strain/Indicator: TA104, Metabolic Activation: NONE, Method: PREINCUBATION): inactive; negative
- mutagenic call (Test System: AMES SALMONELLA TYPHIMURIUM, Strain/Indicator: TA104, Metabolic Activation: RAT LIVER S-9, Method: PREINCUBATION): inactive; negative
- mutagenic call (Test System: AMES SALMONELLA TYPHIMURIUM, Strain/Indicator: TA1535, Metabolic Activation: HAMSTER, LIVER, S-9, AROCLOR 1254 (10 OR 30%), Method: PREINCUBATION): inactive; negative
- mutagenic call (Test System: AMES SALMONELLA TYPHIMURIUM, Strain/Indicator: TA1535, Metabolic Activation: HAMSTER, LIVER, S-9, AROCLOR 1254, Method: PREINCUBATION): inactive; negative
- mutagenic call (Test System: AMES SALMONELLA TYPHIMURIUM, Strain/Indicator: TA1535, Metabolic Activation: MOUSE KIDNEY S-9, NADP OR ARACHIDONIC ACID (10%), Method: MICROMETHOD): active; positive
- mutagenic call (Test System: AMES SALMONELLA TYPHIMURIUM, Strain/Indicator: TA1535, Metabolic Activation: MOUSE LIVER S-9 (10%), Method: MICROMETHOD): inactive; negative
- mutagenic call (Test System: AMES SALMONELLA TYPHIMURIUM, Strain/Indicator: TA1535, Metabolic Activation: NONE, Method: STANDARD PLATE): inactive; negative
- mutagenic call (Test System: AMES SALMONELLA TYPHIMURIUM, Strain/Indicator: TA1535, Metabolic Activation: RAT LIVER S-9, AROCLOR 1254 (10%), Method: MICROMETHOD): inactive; negative
- mutagenic call (Test System: AMES SALMONELLA TYPHIMURIUM, Strain/Indicator: TA1535, Metabolic Activation: RAT LIVER S-9, Method: PREINCUBATION): inactive; negative
- mutagenic call (Test System: AMES SALMONELLA TYPHIMURIUM, Strain/Indicator: TA1535, Metabolic Activation: RAT, LIVER, S-9, AROCLOR 1254 (10 OR 30%), Method: PREINCUBATION): inactive; negative
- mutagenic call (Test System: AMES SALMONELLA TYPHIMURIUM, Strain/Indicator: TA1535, Metabolic Activation: RAT, LIVER, S-9, AROCLOR 1254, Method: PREINCUBATION): inactive; negative
- mutagenic call (Test System: AMES SALMONELLA TYPHIMURIUM, Strain/Indicator: TA1535, Metabolic Activation: RAT, LIVER, S-9, AROCLOR 1254, Method: STANDARD PLATE): inactive; negative
- mutagenic call (Test System: AMES SALMONELLA TYPHIMURIUM, Strain/Indicator: TA1537, Metabolic Activation: NONE, Method: PREINCUBATION): inactive; negative
- mutagenic call (Test System: AMES SALMONELLA TYPHIMURIUM, Strain/Indicator: TA1537, Metabolic Activation: NONE, Method: STANDARD PLATE): inactive; negative
- mutagenic call (Test System: AMES SALMONELLA TYPHIMURIUM, Strain/Indicator: TA1537, Metabolic Activation: RAT LIVER S-9, Method: PREINCUBATION): inactive; negative
- mutagenic call (Test System: AMES SALMONELLA TYPHIMURIUM, Strain/Indicator: TA1537, Metabolic Activation: RAT, LIVER, S-9, AROCLOR 1254, Method: STANDARD PLATE): inactive; negative
- mutagenic call (Test System: AMES SALMONELLA TYPHIMURIUM, Strain/Indicator: TA1538, Metabolic Activation: MOUSE KIDNEY S-9, NADP OR ARACHIDONIC ACID (10%), Method: MICROMETHOD): active; positive
- mutagenic call (Test System: AMES SALMONELLA TYPHIMURIUM, Strain/Indicator: TA1538, Metabolic Activation: MOUSE LIVER S-9 (10%), Method: MICROMETHOD): inactive; negative
- mutagenic call (Test System: AMES SALMONELLA TYPHIMURIUM, Strain/Indicator: TA1538, Metabolic Activation: NONE, Method: PREINCUBATION): inactive; negative
- mutagenic call (Test System: AMES SALMONELLA TYPHIMURIUM, Strain/Indicator: TA1538, Metabolic Activation: NONE, Method: STANDARD PLATE): inactive; negative
- mutagenic call (Test System: AMES SALMONELLA TYPHIMURIUM, Strain/Indicator: TA1538, Metabolic Activation: RAT LIVER S-9, AROCLOR 1254 (10%), Method: MICROMETHOD): inactive; negative
- mutagenic call (Test System: AMES SALMONELLA TYPHIMURIUM, Strain/Indicator: TA1538, Metabolic Activation: RAT LIVER S-9, Method: PREINCUBATION): inactive; negative
- mutagenic call (Test System: AMES SALMONELLA TYPHIMURIUM, Strain/Indicator: TA1538, Metabolic Activation: RAT, LIVER, S-9, AROCLOR 1254, Method: STANDARD PLATE): inactive; negative
- mutagenic call (Test System: CHINESE HAMSTER V-79, Strain/Indicator: V-79(HPRT)/6-THIOGUANINE, Metabolic Activation: NONE): inactive; negative
- mutagenic call (Test System: CHINESE HAMSTER V-79, Strain/Indicator: V-79(HPRT)/6-THIOGUANINE, Metabolic Activation: RAT LIVER S-9): inactive; negative
- mutagenic call (Test System: Chinese hamster lung cells, Strain/Indicator: V79 (HPRT)/6-Thioguanine, Metabolic Activation: None, Method: Standard plate): active; positive (weak)
- mutagenic call (Test System: Chinese hamster lung cells, Strain/Indicator: V79 (HPRT)/6-Thioguanine, Metabolic Activation: Rat, Kidney, S-9 (phenobarbital/beta-naphthoflavone), Method: Standard plate): active; positive (weak)
- mutagenic call (Test System: MOUSE LYMPHOMA, Strain/Indicator: L5178Y (TK+/TK-), Metabolic Activation: NONE, Method: SUSPENSION/PLATE): inactive; negative
- mutagenic call (Test System: MOUSE LYMPHOMA, Strain/Indicator: L5178Y (TK+/TK-), Metabolic Activation: RAT, LIVER, S-9, AROCLOR 1254, Method: SUSPENSION/PLATE): inactive; negative
- mutagenic call (Test System: Mouse lymphoma cells, Strain/Indicator: L5178Y (tk+/tk-), Metabolic Activation: None, Method: Microtiter): active; positive (weak)
- mutagenic call (Test System: Mouse lymphoma cells, Strain/Indicator: L5178Y (tk+/tk-), Metabolic Activation: Rat, Kidney, S-9 (phenobarbital/beta-naphthoflavone), Method: Microtiter): active; positive (weak)
- mutagenic call (Test System: UDS HUMAN INFANT UROTHELIAL CELLS, Strain/Indicator: THY INCORP, Metabolic Activation: NONE, Method: AUTORADIOGRAPHY): inactive; negative
- mutagenic call (Test System: UDS HUMAN UROTHELIAL CELLS, Strain/Indicator: THY INCORP, Metabolic Activation: NONE, Method: AUTORADIOGRAPHY): active; positive
- mutagenic call (Test System: UDS HUMAN UROTHELIAL CELLS, Strain/Indicator: THYMIDINE INCORPORATION, Metabolic Activation: NONE, Method: AUTORADIOGRAPHY): active; positive
- mutagenic call (Test System: UDS PORCINE PRIMARY BLADDER EPITHELIAL CELL, Strain/Indicator: THY INCORP, Metabolic Activation: NONE, Method: AUTORADIOGRAPHY): active; positive
- mutagenic call (Test System: UDS RODENT PRIMARY CELLS, Metabolic Activation: NONE, Method: AUTORADIOGRAPHY (DNA REPAIR)): inactive; negative
